Columns and labels:
[1] = biological target: T1, 2-aminomuconate-6-semialdehyde dehydrogenase (AMSDH) (Pseudomonas fluorescens, UniProt Q83V33, R120A); assay: steady-state kinetics (Km, lower bound); type: biochemical
T1 construct: gene nbaE
T1 sequence (Q83V33 1-500 R120A): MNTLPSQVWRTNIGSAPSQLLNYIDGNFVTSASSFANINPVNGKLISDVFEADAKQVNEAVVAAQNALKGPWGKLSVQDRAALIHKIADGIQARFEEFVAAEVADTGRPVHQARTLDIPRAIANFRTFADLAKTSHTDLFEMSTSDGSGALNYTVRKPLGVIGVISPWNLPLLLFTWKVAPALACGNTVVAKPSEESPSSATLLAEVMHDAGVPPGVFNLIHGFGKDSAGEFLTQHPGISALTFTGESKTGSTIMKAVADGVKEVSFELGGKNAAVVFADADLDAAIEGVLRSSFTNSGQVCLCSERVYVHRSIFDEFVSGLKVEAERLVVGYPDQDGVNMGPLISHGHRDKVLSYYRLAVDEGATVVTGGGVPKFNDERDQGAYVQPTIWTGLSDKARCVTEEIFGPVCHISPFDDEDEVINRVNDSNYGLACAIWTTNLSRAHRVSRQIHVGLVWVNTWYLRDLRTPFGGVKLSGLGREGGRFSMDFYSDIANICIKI

[2] = biological target: T2, 2-aminomuconate-6-semialdehyde dehydrogenase (AMSDH) (Pseudomonas fluorescens, UniProt Q83V33, R464A); assay: steady-state kinetics; substrate inhibition Ki (Km […]); type: biochemical
T2 construct: gene nbaE

[3] = biological target: T3, 2-aminomuconate-6-semialdehyde dehydrogenase (AMSDH) (Pseudomonas fluorescens, UniProt Q83V33, E268A); assay: crystal structures of thiohemiacetal (4OU2) and thioacyl (4OUB) adducts; ESI mass spectrometry; absorption titration; type: binding
T3 construct: gene nbaE
T3 sequence (Q83V33 1-500 E268A): T1 sequence (Q83V33 1-500 R120A)

[4] = biological target: T4, 2-aminomuconate-6-semialdehyde dehydrogenase (AMSDH) (Pseudomonas fluorescens, UniProt Q83V33); assay: crystal structure of co-crystallized binary complex ([…] Å); type: binding
T4 construct: gene nbaE
T4 sequence (Q83V33 1-500): T1 sequence (Q83V33 1-500 R120A)

purified protein = substrate: O=C/C=C/C=C(/O)C(=O)O; assay: purified protein; type: biochemical, Pseudomonas fluorescens; conditions: NAD+ active site; bifurcated hydrogen bonds with Arg120 and Arg464; C6 becomes covalently bound to Cys302 in the later thioacyl intermediate (4NPI)
[5] = biological target: the molecule itself; assay: crystal structure; wild-type AMSDH, ligand-free, with NAD+, with NAD+ and 2-AMS or 2-HMS, and as thioacyl intermediate; space group P212121; four polypeptides per asymmetric unit

Molecule: O=C/C=C/C=C(/O)C(=O)O [2-HMS, 2-hydroxymuconate-6-semialdehyde]
- Km [1]: > 446 µM
- Ki [2]: ~6 µM
- crystal structures of thiohemiacetal (4OU2) and thioacyl (4OUB) adducts; ESI mas [3]: a continuous electron density between Cys302-SG and 2-HMS-C6 is observed

Molecule: NC(=O)c1ccc[n+]([C@@H]2O[C@H](COP(=O)([O-])OP(=O)(O)OC[C@H]3O[C@@H](n4cnc5c(N)ncnc54)[C@H](O)[C@@H]3O)[C@@H](O)[C@H]2O)c1 [NAD+, NAD^+]
- crystal structure of co-crystallized binary complex (2.00 Å) [4]: an NAD^+ molecule is present in an extended, anti-conformation in the amino-terminal, co-substrate-binding domain of each monomer

B1: 2-aminomuconate-6-semialdehyde dehydrogenase from Pseudomonas fluorescens, wild type (enzyme, UniProt Q83V33 1-500, looked up)
chain: T1 sequence (Q83V33 1-500 R120A)
notes: 2-aminomuconate-6-semialdehyde dehydrogenase (AMSDH), Pseudomonas fluorescens; also called AMSDH; wild-type AMSDH; source: E. coli overexpression system, purified
- Km (purified protein): 10.4 ± 0.2 µM
- stoichiometry N [5]: 4

From paper PMC4286809, “Crystallographic and spectroscopic snapshots reveal a dehydrogenase in action” (Nature Communications, 2015)
